Columns and labels:
PI3K alpha (PIK3CA) = PI3K alpha (PIK3CA) (Homo sapiens (Human), UniProt P42336); experiment: In vitro assay of ability to inhibit PI3K alpha activity (phage-tagged kinase competition binding, qPCR)
Method: (§1) (a) An in vitro assay which determines the ability of a test compound to inhibit PI3K alpha activity: PI3 alpha (PIK3CA) kinase-tagged T7 phage strains were prepared in an E. coli host derived from the BL21 strain. E. coli were grown to log-phase and infected with T7 phage and incubated with shaking at 32° C. until lysis. The lysates were centrifuged and filtered to remove cell debris. The remaining kinases were produced in HEK-293 cells and subsequently tagged with DNA for qPCR detection. […] The liganded beads were blocked with excess biotin and washed with blocking buffer (SeaBlock (Pierce), 1% BSA, 0.05% Tween 20, 1 mM DTT) to remove unbound ligand and to reduce non-specific binding. Binding reactions were assembled by combining kinases, liganded affinity beads, and test compounds in 1× binding buffer (20% SeaBlock, 0.17×PBS, 0.05% Tween 20, 6 mM DTT). All reactions were performed in polystyrene 96-well plates in a final volume of 0.135 ml. The assay plates were incubated at room temperature with shaking for 1 hour and the affinity beads were washed with wash buffer (1×PBS, 0.05% Tween 20). […] The kinase concentration in the eluates was measured by qPCR.
An 11-point 3-fold serial dilution of each test compound was prepared in 100% DMSO at 100× final test concentration and subsequently diluted to 1× in the assay (final DMSO concentration=1%).
Binding constants (Kd's) were calculated with a standard dose-response curve using the Hill equation: Response=Background+(Signal−Background)/(1+(Kd^Hill Slope/Dose^Hill Slope)) The Hill Slope was set to −1. Curves were fitted using a non-linear least square fit with the Levenberg-Marquardt algorithm.

[1] = biological target: MTOR (Mammalian target of rapamycin) (Homo sapiens (Human), UniProt P42345); experiment: In vitro assay of ability to inhibit MTOR (same conditions as PI3K alpha assay); type: binding; conditions: read-out: IC50 for MTOR inhibition
Method: as §1, with “qPCR. […]” for “qPCR.”
Binding constants (Kd's) were calculated with a standard dose-response curve using the Hill equation: Response=Background+(Signal−Background)/(1+(Kd^Hill Slope/Dose^Hill Slope)) The Hill Slope was set to −1. […]

A549 cell line xenograft = experiment: In vivo subcutaneous A549 cell line xenograft model in nude mice, tumor growth inhibition; conditions: for Tumor growth inhibition (TGI, %) at 14 days: day 14, A549 xenograft nude mice
Method: (§2) A representative protocol for the in vivo experiment is as follows to establish the subcutaneous A549 cell line xenograft model in nude mice and to evaluate the in vivo therapeutic efficacy of the compounds: A549 cells were cultured in RPMI1640 containing 10% fetal bovine serum, 1% L-glutamine, 100 U/mL penicillinG and 100 μg/mL streptomycin. Cells in logarithmic growth phase were harvested and resuspended in 1×PBS for implantation.
(§3) Tumor xenografts were established by injecting tumor cells 5×10^6/mouse into the right flank by sc under sterile conditions. When the tumors reached an appropriate size (100-200 mm^3), mice were randomized into 6 mice per group (8 mice in control group). The tumors were measured using a caliper in two dimensions, length (a), and width (b). Tumor volumes were estimated from measurements of two diameters of the individual tumors as follows: Tumor Volume(mm^3)=(a×b^2)/2 The tumor sizes and animal body weights were measured twice a week. Mice were observed daily for clinical signs. Blood samples were collected 2 hours after last treatment; plasma samples were prepared and stored at −80° C. Tumor tissues were separated, weighed, taken picture, and subsequently stored at −80° C. for further analysis. All animal experiments were performed in accordance with the Guidelines for Use and Care of Animals of the University of Traditional Medicine. The parameters for in vivo efficacy evaluation were calculated according to the guidance of SFDA. Percent T/C (%) was calculated with the following formula: T/C(%)=(TRTV/CRTV)×100%, where TRTV and CRTV stand for relative tumor volume in treatment group and vehicle control group, respectively. Relative tumor volume (RTV) was calculated using the formula: RTV=Vt/V0, where Vt represents volume on testing day, and V0 represents volume on first day of treatment. Tumor growth inhibition (TGI, %) were calculated as TGI (%)=(Ctw−Ttw)/Ctw×100%, where Ctw and Ttw represent mean tumor weight in vehicle control and treatment group, respectively.
(§4) Compound Preparation: Test articles were dissolved in 100% N-methylpyrrolidone (NMP) and 10× solutions were prepared every five days, aliquotted, and stored in the dark at room temperature. On each treatment day, stock solution aliquots were diluted with polyethylene glycol (PEG300) to provide the formulated drug in 10% NMP: 90% PEG300. Dosing solutions were protected from light, and the formulated drug was administered within 1 hour after preparation. In all groups, the dosing volume of 10 mL/kg (0.2 mL/20 g mouse) was scaled to the weight of each animal as determined on the day of dosing, except on weekends when the previous BW is carried forward. Test articles were administered by oral gavage (p.o.) once daily until the end of the study.
(§5) At study endpoint, after blood collection, mice were practiced euthanasia by cervical dislocation, the tumor tissue was collected first, then abdominal cavity was cut open, liver and spleen were excised, then weight after the gallbladder was removed respectively. Organ weight between the treated versus the control groups were compared.

[2] = Kidney weight change versus control in A549 xenograft model in nude mice; type: in vivo; conditions: day 21, A549 xenograft nude mice
Method: as §2, §3, §4, §5

[3] = tested on: MCF-7 human breast cancer cell lines; experiment: MCF-7 cell proliferation assay (CCK-8/WST-8, 72 hours); type: cell-based; conditions: MCF7, WST-8
Method: A representative number of compounds were assayed against MCF-7 human breast cancer cell lines using the cell proliferation assay:
1. MCF-7 cells were cultured in EMEM (GIBCO, Cat#41500) medium supplemented with 10% fetal bovine serum, 0.01 mg/ml human recombinant insulin and 1% penicillin-streptomycin solution, in the temperature of 37° C., 5% CO2 and 95% humidity. The cells were harvested during the logarithmic growth period and counted with hemocytometer. The cell viability will be over 98% by trypan blue exclusion. Cell Counting Kit-8 (Dojindo, Cat# CK04) was used. 2. A cell suspension (100 μl) was added into 96-well plates (triplicates for each cell concentration), the cell density was 4.0×10^3/well. The next day, the test articles or positive drug stock solution were dissolved in DMSO at the concentration of 10 mM, the stock solutions were diluted with DMSO by serial 3 or 10 fold dilution. Then the test articles dilutions were further diluted with culture medium to the final concentrations of (10.0 μM, 3.33 μM, 1.11 μM, 366 nM, 122 nM, 40.7 nM, 13.6 nM, 4.52 nM and 0 nM), the positive drug dilutions were further diluted with culture medium to 9 final concentrations of (10 μM, 1 μM, 100 nM, 10 nM, 1 nM, 0.1 nM, 0.01 nM, 0.001 nM and 0 nM). […] The absorbance was recorded at 450 nm using Victor Multilabel Plate Reader. […]

[4] = 49 μmol/kg oral gavage once daily
[5] = 98 μmol/kg oral gavage once daily

PI3K alpha (PIK3CA), sequence (P42336 whole entry, species assumed): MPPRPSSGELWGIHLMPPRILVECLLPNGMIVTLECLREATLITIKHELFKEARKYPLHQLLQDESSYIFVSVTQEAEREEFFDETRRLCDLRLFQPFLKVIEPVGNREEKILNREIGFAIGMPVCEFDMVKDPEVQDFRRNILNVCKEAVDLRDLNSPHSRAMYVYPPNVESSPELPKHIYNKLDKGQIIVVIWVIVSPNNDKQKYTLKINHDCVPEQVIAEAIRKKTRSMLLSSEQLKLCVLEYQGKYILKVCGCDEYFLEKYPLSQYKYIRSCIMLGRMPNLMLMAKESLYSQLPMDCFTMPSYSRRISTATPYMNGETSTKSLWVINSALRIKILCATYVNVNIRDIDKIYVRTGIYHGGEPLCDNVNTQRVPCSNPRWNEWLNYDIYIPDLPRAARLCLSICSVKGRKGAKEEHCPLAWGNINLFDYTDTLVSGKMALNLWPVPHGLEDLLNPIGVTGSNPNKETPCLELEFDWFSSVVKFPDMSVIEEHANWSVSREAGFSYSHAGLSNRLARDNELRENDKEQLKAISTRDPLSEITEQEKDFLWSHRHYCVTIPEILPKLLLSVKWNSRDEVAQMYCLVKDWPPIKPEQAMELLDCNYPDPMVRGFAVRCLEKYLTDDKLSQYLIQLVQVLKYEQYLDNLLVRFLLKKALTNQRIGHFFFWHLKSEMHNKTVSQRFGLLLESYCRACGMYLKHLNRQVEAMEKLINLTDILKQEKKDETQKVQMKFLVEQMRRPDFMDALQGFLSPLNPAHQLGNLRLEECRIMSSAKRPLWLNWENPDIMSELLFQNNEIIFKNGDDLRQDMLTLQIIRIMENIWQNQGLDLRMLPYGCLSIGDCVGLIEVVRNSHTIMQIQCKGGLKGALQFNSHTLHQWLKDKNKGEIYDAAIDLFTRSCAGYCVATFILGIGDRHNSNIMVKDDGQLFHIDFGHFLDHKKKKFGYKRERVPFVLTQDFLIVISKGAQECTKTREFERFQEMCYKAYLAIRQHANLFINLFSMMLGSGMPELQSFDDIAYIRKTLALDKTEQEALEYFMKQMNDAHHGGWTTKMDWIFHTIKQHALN

## NCC(=O)Nc1cc(C(F)(F)F)c(-c2cc(N3CCOCC3)nc(N3CCOCC3)n2)cn1 [Compound 9, 2-amino-N-(5-(2,6-dimorpholinopyrimidin-4-yl)-4-(trifluoromethyl)pyridin-2-yl)acetamide]
PI3K alpha (PIK3CA)
  IC50: 0.84 nM
[1]
  IC50: 26 nM
A549 cell line xenograft; 49 μmol/kg dose, day 21
  Efficacy in A549 xenograft model at day 21 (in words): better efficacy than Compound 1
[2]; [4]
  Kidney weight change compared to the control at 21 days: −5.0%
[2]; [5]
  Kidney weight change compared to the control at 21 days: −8.1%
[2]
  Kidney weight decrease compared with the control (in words): much less decreased kidney weight than Compound 1

## CCNc1cc(C(F)(F)F)c(-c2cc(N3CCOCC3)nc(N3CCOCC3)n2)cn1 [Compound 5, 5-(2,6-dimorpholinopyrimidin-4-yl)-N-ethyl-4-(trifluoromethyl)pyridin-2-amine]
PI3K alpha (PIK3CA)
  IC50: 10 nM

## CCCNc1cc(C(F)(F)F)c(-c2cc(N3CCOCC3)nc(N3CCOCC3)n2)cn1 [Compound 6, 5-(2,6-dimorpholinopyrimidin-4-yl)-N-propyl-4-(trifluoromethyl)pyridin-2-amine]
PI3K alpha (PIK3CA)
  IC50: 60 nM

## CNc1cc(C(F)(F)F)c(-c2cc(N3CCOCC3)nc(N3CCOCC3)n2)cn1 [Compound 4, 5-(2,6-dimorpholinopyrimidin-4-yl)-N-methyl-4-(trifluoromethyl)pyridin-2-amine]
PI3K alpha (PIK3CA)
  IC50: 1.9 nM

## CC(=O)Nc1cc(C(F)(F)F)c(-c2cc(N3CCOCC3)nc(N3CCOCC3)n2)cn1 [Compound 2, N-(5-(2,6-dimorpholinopyrimidin-4-yl)-4-(trifluoromethyl)pyridin-2-yl)acetamide]
[3]
  IC50: 82.4 nM
A549 cell line xenograft; [4]
  Tumor growth inhibition (TGI, %) at 14 days: 52%
A549 cell line xenograft; [5]
  Tumor growth inhibition (TGI, %) at 14 days: 82%

## Nc1cc(C(F)(F)F)c(-c2cc(N3CCOCC3)nc(N3CCOCC3)n2)cn1 [Compound 1, 5-(2,6-Dimorpholinopyrimidin-4-yl)-4-(trifluoromethyl)pyridin-2-amine, reference compound]
[3]
  IC50: 186 nM
A549 cell line xenograft; [4]
  Tumor growth inhibition (TGI, %) at 14 days: 36%
A549 cell line xenograft; [5]
  Tumor growth inhibition (TGI, %) at 14 days: 70%
[2]; [4]
  Kidney weight change compared to the control at 21 days: −8.7%
[2]; [5]
  Kidney weight change compared to the control at 21 days: −20.1%
